# Results as given in PubChem BioAssay (NCI).
#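 Where inhibition never reached the appropriate level, the endpoint shown equals the highest concentration tested. Otherwise, values were interpolated linearly from a five-concentration, 48-hour dose response in 96-well plates. Definition used: TGI = concentration required for complete inhibition of growth.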
# What was measured:
# Assay in all cases: NCI anticancer screen, dose series, 48 h
# RPMI-8226 leukemia = system: RPMI-8226 leukemia
# SK-MEL-28 melanoma = system: SK-MEL-28 melanoma
# HCC-2998 colon = system: HCC-2998 colon
# OVCAR-5 ovarian = system: OVCAR-5 ovarian
# HS 578T breast = system: HS 578T breast
# SK-MEL-5 melanoma = system: SK-MEL-5 melanoma
# MOLT-4 leukemia = system: MOLT-4 leukemia
# NCI-H23 lung = system: NCI-H23 lung
# SNB-19 CNS = system: SNB-19 CNS
# MCF7 breast = system: MCF7 breast
# 786-0 renal = system: 786-0 renal
# CAKI-1 renal = system: CAKI-1 renal
# OVCAR-3 ovarian = system: OVCAR-3 ovarian
# M14 melanoma = system: M14 melanoma
# MDA-MB-435 = system: MDA-MB-435
# NCI-H226 lung = system: NCI-H226 lung
# RXF 393 renal = system: RXF 393 renal
# SF-539 CNS = system: SF-539 CNS
# HOP-92 NSCLC = system: HOP-92 NSCLC
Structure (SMILES),TGI (RPMI-8226 leukemia) [µM],TGI (SK-MEL-28 melanoma) [µM],TGI (HCC-2998 colon) [µM],TGI (OVCAR-5 ovarian) [µM],TGI (HS 578T breast) [µM],TGI (SK-MEL-5 melanoma) [µM],TGI (MOLT-4 leukemia) [µM],TGI (NCI-H23 lung) [µM],TGI (SNB-19 CNS) [µM],TGI (MCF7 breast) [µM],TGI (786-0 renal) [µM],TGI (CAKI-1 renal) [µM],TGI (OVCAR-3 ovarian) [µM],TGI (M14 melanoma) [µM],TGI (MDA-MB-435) [µM],TGI (NCI-H226 lung) [µM],TGI (RXF 393 renal) [µM],TGI (SF-539 CNS) [µM],TGI (HOP-92 NSCLC) [µM]
Cc1cc(N(CCC#N)CCC#N)ccc1/C(N=Nc1ccc([N+](=O)[O-])cc1)=N\NC(=O)c1cc(Cl)ccc1C(=O)c1ccccc1,38.4,> 100,30.3,> 100,68,27.3,38.8,38.6,> 100,26.1,52.7,62.5,> 100,> 100,> 100,34.1,57.9,–,–
CCn1c(-c2cc(OC)cc(OC)c2)nc2c1C(=O)c1ccccc1C2=O,> 100,> 100,> 100,> 100,> 100,> 100,> 100,> 100,> 100,> 100,> 100,–,> 100,> 100,> 100,> 100,69.2,> 100,> 100
COc1cc(-c2cc(=O)c3c(OC)c(OC)c(OC)c(OC)c3o2)c(OC)c(OC)c1OC,> 100,> 100,> 100,> 100,> 100,> 100,> 100,–,> 100,> 100,> 100,> 100,–,> 100,> 100,> 100,> 100,> 100,82.5
CN1C(=O)N/C(=C\c2ccc(S(=O)(=O)NN)cc2)C1=O,> 100,> 100,> 100,> 100,> 100,> 100,> 100,> 100,> 100,> 100,> 100,> 100,> 100,> 100,> 100,> 100,> 100,–,> 100
O=[N+]([O-])c1ccccc1S(=O)(=O)c1cc(Cl)cc2c1NCCC2,> 100,> 100,> 100,> 100,> 100,86.1,> 100,–,> 100,> 100,> 100,> 100,> 100,> 100,> 100,> 100,> 100,> 100,> 100
CN(c1ccc(Cl)cc1)S(=O)(=O)c1cccc([N+](=O)[O-])c1,> 100,> 100,> 100,> 100,> 100,72.8,> 100,> 100,> 100,> 100,> 100,> 100,> 100,> 100,> 100,> 100,> 100,> 100,–
CC(C)C1OC23CCCCC2C(C#N)(C#N)C1(C#N)C(=N)O3 (stereo unspecified),–,87.3,29.6,47.5,42.3,35.7,> 100,85.8,> 100,36.6,34.4,22.4,59.8,29.8,80.6,> 100,46.4,39.4,35.1
CC1(CCCO)CCCCCC(C)(CCCO)C1=O (stereo unspecified),> 100,> 100,> 100,> 100,> 100,> 100,> 100,> 100,> 100,> 100,> 100,> 100,> 100,> 100,> 100,> 100,> 100,–,> 100
N#CSC#Cc1ccc(C#CSC#N)cc1,> 100,57.2,34.3,34.9,48.8,33.2,> 100,35.5,47.7,38.6,33.5,31.6,39.7,–,45.4,53.6,35.7,43.3,26
O=c1[nH]c(-c2ccc3ccccc3c2)nc2ccccc12,> 100,> 100,> 100,> 100,> 100,> 100,> 100,> 100,51.4,> 100,> 100,> 100,> 100,> 100,> 100,> 100,> 100,–,> 100
Clc1c(Cl)c(Cl)c2nn(C3CCCO3)nc2c1Cl (stereo unspecified),–,–,> 100,> 100,49.5,> 100,> 100,> 100,> 100,> 100,> 100,> 100,> 100,> 100,> 100,> 100,> 100,> 100,–
O=C(O)c1n[nH]nc1Cl,> 100,> 100,> 100,> 100,> 100,> 100,–,> 100,–,> 100,> 100,–,> 100,> 100,> 100,> 100,> 100,> 100,–
CNc1ccc(OC)cc1S(=O)(=O)c1ccccc1[N+](=O)[O-],> 100,> 100,> 100,> 100,> 100,> 100,> 100,> 100,> 100,> 100,> 100,–,> 100,> 100,> 100,> 100,> 100,> 100,–
